According to US11998556B2, “Methods of treating parkinson's disease and/or lewy body disease or disorder(s)” (Athira Pharma, Inc., priority 2021, dated 2024):
Square brackets hold non-standard residues; d marks the D form. Peptide text beside a SMILES is read from it. * marks the point of attachment. pY = N[CH](Cc1ccc(OP(=O)(O)O)cc1)C(=O)O; Hexanoyl = CCCCCC(=O)*; Ahx = NCCCCCC(=O)O

How the values were obtained:
[1] = Clinical studies of ATH-1017: safety and tolerability of single and multiple SC administration; assay type: in vivo, human
[2] = Nonclinical studies (hepatotoxicity risk); assay type: in vivo
[3] = Conversion of prodrug ATH-1017 to active drug ATH-1001 in the plasma after SC injection; assay type: in vivo
Text: ATH-1017 is an experimental treatment for Lewy body disease or disorder(s) (LBD), including Parkinson's disease dementia (PDD) and/or dementia with Lewy bodies (DLB), formulated as a sterile solution for subcutaneous (SC) injection. […] ATH-1017 was developed as a water-soluble prodrug of ATH-1001 to allow SC dosing in aqueous vehicles. The active drug ATH-1001 acts as an agonist of the hepatocyte growth factor (HGF) receptor and its tyrosine kinase, MET in the brain. The HGF/MET system presents a new therapeutic target to treat neurodegeneration and restore cognitive, behavioral, functional and motor capacities in LBD such as PDD.

[4] = Phase 2 randomized, double-blind, placebo-controlled study in subjects with PDD inclusive of probable DLB; assay type: in vivo, human; details: 40 mg/day or 70 mg/day SC OD, 26 weeks
Description: The study is conducted at a total of approximately 15 centers in the USA and optionally Canada. Subjects and their caregivers are required to sign an informed consent form (ICF) and are evaluated against the inclusion/exclusion criteria during a screening period; all eligible subjects will have the option to be tested for glucocerebrosidase (GBA) genotype. Subjects who meet all inclusion/exclusion criteria will undergo baseline ERP P300 assessments at 2 separate baseline visits. At the first baseline assessment (Visit 2a, Pre-baseline, Day-10 to Day-3), ERP P300 is uploaded for quality check immediately after completion of the visit. […] At this Baseline visit (Visit 2b), subjects undergo pre-dose baseline and post-dose ERP P300. […] The first SC injection of study drug is performed on site under supervision. The subject should withhold study drug administration on the day of subsequent clinic visits; study drug administration is done on site under supervision of site staff at these visits. […] During the double-blind treatment period, clinic visits take place on Day 1 and thereafter at Weeks 2, 6, 12, 16, 20, and 26, with a safety follow-up visit scheduled 4 weeks after completion of the double-blind period at Week 30. On Day 1, after completion of the first dose, subjects remain on-site 2 hours for post-treatment clinical observation. […]

CCCCCC(=O)NC(Cc1ccc(OP(=O)(O)O)cc1)C(=O)NC(C(=O)NCCCCCC(N)=O)C(C)CC (stereo not shown) [ATH-1017] (Hexanoyl-[pY]-Ile-[Ahx]-NH2; configuration not given here)
safety and tolerability ([1]; 40 mg SC, OD, over 9 consecutive days, AD subjects): safe and well tolerated
injection site reactions (pain, pruritus, erythema): severity ([1]; SC injection, human clinical studies, resolved without specific therapy): mild in nature
hepatotoxicity ([1]; human studies): has not been observed
CNS-specific adverse events ([1]; humans, to date): no CNS-specific adverse events have been observed
safety and tolerability ([1]; multiple administration of 20, 40, 60 and 80 mg SC, OD, over 9 consecutive days, healthy elderly subjects): safe and well tolerated
safety and tolerability ([1]; single SC administration of 2, 6, 20, 40, 60 and 90 mg, healthy young subjects): safe and well tolerated
hepatotoxicity risk [2]: potential risk for hepatotoxicity identified
conversion of prodrug to active drug ATH-1001 [3]: rapidly converted
safety and tolerability [4]: acceptable safety and tolerability
primary, secondary or exploratory endpoints (GST, ADAS-Cog13, ERP P300 latency etc.) ([4]; versus placebo): achieves one or more of the primary, secondary, or exploratory endpoints
